Measured values: PubChem BioAssay AID248 (DTP/NCI, 2004)
Several values for one entry are separate records, joined by “and”; a condition that tells them apart may be missing. Equal values may be shown once. Toxic doses and inconclusive results are not listed. Rule as the data show it: active = T/C of 150% or more; inactive = T/C below 125%.

System: L1210 leukemia ip in BDF1 mice, survival T/C
Assay: NCI In Vivo Anticancer Drug Screen. Data for tumor model L1210 Leukemia (intraperitoneal) in B6D2F1 (BDF1) mice
Conditions: higher = longer survival
In short: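 Mice bearing the transplanted tumor received compound or vehicle. Survival of the treated group was divided by that of the vehicle-treated control group to give the ratio.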

Measured: T/C

CS(=O)(=O)OCCCCOS(C)(=O)=O
inactive: endpoint: mean survival time, dose: 1.5 mg/kg/injection, schedule: Q04DX002 (ip), vehicle: saline with Tween-80 95 % of control and 106 % of control | endpoint: mean survival time, dose: 1.7 mg/kg/injection, schedule: Q01DX009 (ip), vehicle: saline with Tween-80 96 % of control and 108 % of control | endpoint: mean survival time, dose: 2.9 mg/kg/injection, schedule: Q04DX002 (ip), vehicle: saline with Tween-80 100 % of control and 107 % of control | endpoint: mean survival time, dose: 3.3 mg/kg/injection, schedule: Q01DX009 (ip), vehicle: saline with Tween-80 96 % of control and 105 % of control | endpoint: mean survival time, dose: 3.75 mg/kg/injection, schedule: Q01DX001 (ip), vehicle: carboxymethylcellulose (CMC) 103 % of control | endpoint: mean survival time, dose: 5.8 mg/kg/injection, schedule: Q04DX002 (ip), vehicle: saline with Tween-80 98 % of control and 102 % of control | endpoint: mean survival time, dose: 6.25 mg/kg/injection, schedule: Q01DX010 (ip), vehicle: saline 108 % of control and 118 % of control | endpoint: mean survival time, dose: 6.5 mg/kg/injection, schedule: Q01DX009 (ip), vehicle: saline with Tween-80 99 % of control and 105 % of control | endpoint: mean survival time, dose: 7.5 mg/kg/injection, schedule: Q01DX001 (ip), vehicle: carboxymethylcellulose (CMC) 112 % of control | endpoint: mean survival time, dose: 9.5 mg/kg/injection, schedule: Q02DX010 (ip), vehicle: carboxymethylcellulose (CMC) 111 % of control | endpoint: mean survival time, dose: 10.0 mg/kg/injection, schedule: Q01DX Z (ip), vehicle: carboxymethylcellulose (CMC) 104 % of control | endpoint: mean survival time, dose: 10.0 mg/kg/injection, schedule: Q02DX010 (ip), vehicle: carboxymethylcellulose (CMC) 97 % of control | endpoint: mean survival time, dose: 10.0 mg/kg/injection, schedule: Q02DX010 (ip), vehicle: other 112 % of control | endpoint: mean survival time, dose: 11.5 mg/kg/injection, schedule: Q04DX002 (ip), vehicle: saline with Tween-80 98 % of control and 109 % of control | endpoint: mean survival time, dose: 12.5 mg/kg/injection, schedule: Q01DX009 (ip), vehicle: saline 97 % of control and 104 % of control and 88 % of control | endpoint: mean survival time, dose: 12.5 mg/kg/injection, schedule: Q01DX010 (ip), vehicle: saline 116 % of control and 118 % of control | endpoint: mean survival time, dose: 12.5 mg/kg/injection, schedule: Q01DX Z (ip), vehicle: carboxymethylcellulose (CMC) 93 % of control and 102 % of control | endpoint: mean survival time, dose: 13.0 mg/kg/injection, schedule: Q01DX009 (ip), vehicle: saline with Tween-80 99 % of control and 101 % of control | endpoint: mean survival time, dose: 14.0 mg/kg/injection, schedule: Q02DX010 (ip), vehicle: carboxymethylcellulose (CMC) 96 % of control | endpoint: mean survival time, dose: 15.0 mg/kg/injection, schedule: Q01DX001 (ip), vehicle: carboxymethylcellulose (CMC) 101 % of control | endpoint: mean survival time, dose: 15.0 mg/kg/injection, schedule: Q02DX010 (ip), vehicle: carboxymethylcellulose (CMC) 98 % of control | endpoint: mean survival time, dose: 15.0 mg/kg/injection, schedule: Q02DX010 (ip), vehicle: other 104 % of control | endpoint: mean survival time, dose: 20.0 mg/kg/injection, schedule: Q01DX Z (ip), vehicle: carboxymethylcellulose (CMC) 103 % of control | endpoint: mean survival time, dose: 22.0 mg/kg/injection, schedule: Q02DX010 (ip), vehicle: carboxymethylcellulose (CMC) 103 % of control and 113 % of control | endpoint: mean survival time, dose: 22.0 mg/kg/injection, schedule: Q02DX010 (ip), vehicle: other 106 % of control | endpoint: mean survival time, dose: 23.0 mg/kg/injection, schedule: Q04DX002 (ip), vehicle: saline with Tween-80 98 % of control and 100 % of control | endpoint: mean survival time, dose: 25.0 mg/kg/injection, schedule: Q01DX009 (ip), vehicle: saline with Tween-80 101 % of control and 115 % of control | endpoint: mean survival time, dose: 25.0 mg/kg/injection, schedule: Q01DX009 (ip), vehicle: saline 96 % of control (2×) and 111 % of control | endpoint: mean survival time, dose: 25.0 mg/kg/injection, schedule: Q01DX Z (ip), vehicle: carboxymethylcellulose (CMC) 102 % of control and 105 % of control | endpoint: mean survival time, dose: 27.0 mg/kg/injection, schedule: Q01DX001 (ip), vehicle: carboxymethylcellulose (CMC) 96 % of control | endpoint: mean survival time, dose: 30.0 mg/kg/injection, schedule: Q01DX001 (ip), vehicle: carboxymethylcellulose (CMC) 106 % of control | endpoint: mean survival time, dose: 33.0 mg/kg/injection, schedule: Q02DX010 (ip), vehicle: other 112 % of control | endpoint: mean survival time, dose: 40.0 mg/kg/injection, schedule: Q01DX Z (ip), vehicle: carboxymethylcellulose (CMC) 110 % of control | endpoint: mean survival time, dose: 40.0 mg/kg/injection, schedule: Q01DX Z (oral), vehicle: saline 94 % of control | endpoint: mean survival time, dose: 41.0 mg/kg/injection, schedule: Q01DX001 (ip), vehicle: carboxymethylcellulose (CMC) 103 % of control | endpoint: mean survival time, dose: 46.0 mg/kg/injection, schedule: Q04DX002 (ip), vehicle: saline with Tween-80 104 % of control and 107 % of control | endpoint: mean survival time, dose: 49.0 mg/kg/injection, schedule: Q01DX009 (ip), vehicle: saline with Tween-80 103 % of control and 121 % of control | endpoint: mean survival time, dose: 50.0 mg/kg/injection, schedule: Q01DX009 (ip), vehicle: saline 98 % of control and 109 % of control and 120 % of control | endpoint: mean survival time, dose: 50.0 mg/kg/injection, schedule: Q01DX010 (ip), vehicle: saline 111 % of control and 88 % of control | endpoint: mean survival time, dose: 50.0 mg/kg/injection, schedule: Q01DX Z (ip), vehicle: carboxymethylcellulose (CMC) 103 % of control | endpoint: mean survival time, dose: 50.0 mg/kg/injection, schedule: Q02DX010 (ip), vehicle: carboxymethylcellulose (CMC) 101 % of control and 107 % of control | endpoint: mean survival time, dose: 50.0 mg/kg/injection, schedule: Q02DX010 (ip), vehicle: other 115 % of control | endpoint: mean survival time, dose: 60.0 mg/kg/injection, schedule: Q01DX001 (ip), vehicle: carboxymethylcellulose (CMC) 110 % of control | endpoint: mean survival time, dose: 61.0 mg/kg/injection, schedule: Q01DX001 (ip), vehicle: carboxymethylcellulose (CMC) 98 % of control | endpoint: mean survival time, dose: 75.0 mg/kg/injection, schedule: Q02DX010 (ip), vehicle: carboxymethylcellulose (CMC) 89 % of control | endpoint: mean survival time, dose: 80.0 mg/kg/injection, schedule: Q01DX Z (oral), vehicle: saline 105 % of control | endpoint: mean survival time, dose: 100.0 mg/kg/injection, schedule: Q01DX009 (ip), vehicle: saline 88 % of control | endpoint: mean survival time, dose: 100.0 mg/kg/injection, schedule: Q01DX Z (ip), vehicle: carboxymethylcellulose (CMC) 93 % of control | endpoint: mean survival time, dose: 100.0 mg/kg/injection, schedule: Q04DX003 (ip), vehicle: saline with Tween-80 101 % of control | endpoint: mean survival time, dose: 120.0 mg/kg/injection, schedule: Q01DX001 (ip), vehicle: carboxymethylcellulose (CMC) 100 % of control | endpoint: mean survival time, dose: 160.0 mg/kg/injection, schedule: Q01DX Z (oral), vehicle: saline 108 % of control | endpoint: mean survival time, dose: 200.0 mg/kg/injection, schedule: Q04DX003 (ip), vehicle: saline with Tween-80 104 % of control | endpoint: mean survival time, dose: 400.0 mg/kg/injection, schedule: Q04DX003 (ip), vehicle: saline with Tween-80 104 % of control | endpoint: median survival time, dose: 10.0 mg/kg/injection, schedule: Q01DX009 (ip), vehicle: saline 105 % of control | endpoint: median survival time, dose: 12.5 mg/kg/injection, schedule: Q01DX009 (ip), vehicle: saline 95 % of control and 112 % of control | endpoint: median survival time, dose: 20.0 mg/kg/injection, schedule: Q01DX009 (ip), vehicle: saline 100 % of control | endpoint: median survival time, dose: 25.0 mg/kg/injection, schedule: Q01DX009 (ip), vehicle: saline 110 % of control and 112 % of control | endpoint: median survival time, dose: 40.0 mg/kg/injection, schedule: Q01DX009 (ip), vehicle: saline 100 % of control | endpoint: median survival time, dose: 50.0 mg/kg/injection, schedule: Q01DX009 (ip), vehicle: saline 100 % of control and 112 % of control | endpoint: median survival time, dose: 80.0 mg/kg/injection, schedule: Q01DX009 (ip), vehicle: saline 110 % of control | endpoint: median survival time, dose: 100.0 mg/kg/injection, schedule: Q01DX009 (ip), vehicle: saline 100 % of control | endpoint: median survival time, dose: 160.0 mg/kg/injection, schedule: Q01DX009 (ip), vehicle: saline 100 % of control

CC(C)[C@]12O[C@H]1[C@@H]1O[C@@]13[C@@]1(C)CCC4=C(COC4=O)[C@@H]1C[C@@H]1O[C@@]13C2=O
inactive: endpoint: mean survival time, dose: 79.0 micrograms/kg/injection, schedule: Q01DX009 (ip), vehicle: saline 92 % of control | endpoint: mean survival time, dose: 118.0 micrograms/kg/injection, schedule: Q01DX009 (ip), vehicle: saline 105 % of control | endpoint: mean survival time, dose: 178.0 micrograms/kg/injection, schedule: Q01DX009 (ip), vehicle: saline 99 % of control | endpoint: mean survival time, dose: 267.0 micrograms/kg/injection, schedule: Q01DX009 (ip), vehicle: saline 101 % of control | endpoint: mean survival time, dose: 400.0 micrograms/kg/injection, schedule: Q01DX009 (ip), vehicle: saline 108 % of control

CCOC(=O)CNC(=O)CBr
inactive: endpoint: mean survival time, dose: 10.0 mg/kg/injection, schedule: Q01DX Z (ip), vehicle: other 103 % of control | endpoint: mean survival time, dose: 20.0 mg/kg/injection, schedule: Q01DX Z (ip), vehicle: other 91 % of control

CCOC(=O)C(=N\Nc1ccc(C)c(C)c1)/C(C)=N\NC(N)=S
inactive: endpoint: mean survival time, dose: 75.0 mg/kg/injection, schedule: Q01DX001 (ip), vehicle: saline 87 % of control | endpoint: mean survival time, dose: 150.0 mg/kg/injection, schedule: Q01DX001 (ip), vehicle: saline 89 % of control
